The text below walks through data of US20250134882A1, “PROTEIN TYROSINE PHOSPHATASE INHIBITORS AND USES THEREOF” (Nerio Therapeutics, Inc., priority 2022, published 2025).

The test system of test [1] is murine B16F10 melanoma cell line. In words: B16F10 IFNγ-induced cellular growth inhibition assay (xCELLigence RTCA). Format: cell-based. The conditions noted are these: Mus musculus, B16-F10, 48 h; read-out: B16 IFNγ Mediated Growth Inhibition Assay: AVG IC50. On the procedure: Example B: B16F10 Cellular Growth Inhibition Assay Compound activity was determined using an interferon gamma (IFNγ)-induced cellular growth inhibition assay with the murine B16F10 melanoma cell line on an Agilent xCELLigence Real-Time Cell Analysis platform (RTCA). RTCA E-Plate View 96 plates (Agilent, 300601010) were pre-equilibrated with 50 μL of assay media (DMEM+10% FBS, Gibco 10566-024, Gibco 10082-147) at 37° C. in a humidified incubator before taking an initial measurement of impedance (sweep). […] Cells were incubated at room temperature for 20 min to allow cells to settle before placing them in the xCELLigence reader and incubating overnight at 37° C., sweeping wells every 15 minutes. After 24 hours, well readings were paused, plates were removed from the incubator and compounds were added using a Tecan D300e dispenser. […] Assay plates were placed in the xCELLigence reader and swept every 15 minutes. After 48 hours, well readings were normalized to the time point immediately preceding compound addition and the area under the growth curve (AUC) was calculated by the RTCA software and exported.

For test [2], the target named is full-length human PTPN2 (TC45) (1-387) protein (Homo sapiens (Human), UniProt P17706). In words: Enzymatic assay with full-length PTPN2 and DiFMUP substrate. The conditions noted are these: 0.5 nM PTPN2, 100 μM DiFMUP, 30 min at room temperature. Format: biochemical. The source says:
Compounds were subsequently added using a Tecan D300e dispenser. […] A four-parameter curve fit was used to determine IC50 values from % inhibition data.

pIC50: −log10 of the molar value.

full-length human PTPN2 (TC45) (1-387) protein, sequence (P17706 other isoform, or with tags, fused parts or gaps): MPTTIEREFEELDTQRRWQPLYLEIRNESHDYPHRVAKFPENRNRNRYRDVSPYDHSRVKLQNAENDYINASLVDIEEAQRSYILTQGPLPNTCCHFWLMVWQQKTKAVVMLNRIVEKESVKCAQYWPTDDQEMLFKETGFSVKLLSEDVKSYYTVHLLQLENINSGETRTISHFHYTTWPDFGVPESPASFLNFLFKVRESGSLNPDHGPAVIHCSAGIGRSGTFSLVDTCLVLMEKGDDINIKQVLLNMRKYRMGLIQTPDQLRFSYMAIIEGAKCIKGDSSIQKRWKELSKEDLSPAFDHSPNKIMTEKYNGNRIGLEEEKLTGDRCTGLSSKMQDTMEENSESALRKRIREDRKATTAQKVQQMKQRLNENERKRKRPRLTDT

A word on the pIC50: it is −log10 of the IC50, conventionally taken in molar units. `CC(C)CCN[C@@H]1C[C@H]2C[C@@H]1c1c2cc(O)c(N2CC(=O)NS2(=O)=O)c1F` [Example 3, 5-((1R,3R,4R)-5-fluoro-7-hydroxy-3-(isopentylamino)-1,2,3,4-tetrahydro-1,4-methanonaphthalen-6-yl)-1,2,5-thiadiazolidin-3-one 1,1-dioxide]: the pIC50 in test [1] is 5.11.
`CC(C)CCNC1CCc2nc(O)c(N3CC(=O)NS3(=O)=O)c(F)c2C1` (centres unmarked) [Example 4, 5-(4-fluoro-2-hydroxy-6-(isopentylamino)-5,6,7,8-tetrahydroquinolin-3-yl)-1,2,5-thiadiazolidin-3-one 1,1-dioxide] had a pIC50 in test [2] of 4.15.
